Assay results taken from US20040224031A1, “Combination of amines and vanadium (IV)/(V) compounds for the treatment and/or prevention of diabetes mellitus” (priority 2003, published 2004).

Key:
[1] = test system: isolated rat adipocytes; assay: Hexose transport (2-deoxyglucose uptake) in isolated rat adipocytes; format: cell-based; parameters: stimulation of 2-deoxyglucose uptake, agent alone: dose or concentration left out as unconfirmed; details: for glucose transport (2-DG uptake): 45 min preincubation of fat cells with increasing concentrations; for stimulation of 2-deoxyglucose uptake, agent alone: benzylamine or orthovanadate alone, 10-min uptake
Description: Adipocyte isolation. […] Adipose cells isolated in such a way were used in subsequent studies.
Hexose transport. After a preincubation period of 45 min at 37° C. in vials containing 400 μl of cell suspension in KRBH with the tested products, [^3H]-2-deoxyglucose was added at a final concentration of 0.1 mM (approx. 1,300,000 d.p.m./vial). […] After centrifugation, the fat cells (upper part of the tubes) were placed in scintillation vials and the incorporated radioactivity was counted.

[2] = test system: streptozotocin-induced diabetic rats; assay: Chronic administration in streptozotocin-induced diabetic rats; format: in vivo, rat; details: for food and water consumption / weight of epididymal adipose tissue (adiposity): chronic treatment of diabetic rats
Text: A group of animals was also subjected to daily i.p. injection of vanadate (50 μmol/kg body wt) for two weeks.
In other studies, rats were daily injected intraperitoneally with 25 μmol/kg vanadate for the first week and with 50 μmol/kg for the second week.

[3] = test system: GLUT4; parameters: increase in the abundance of GLUT4 in plasma membrane preparations / abundance of GLUT4 in plasma membranes, agent alone: dose or concentration left out as unconfirmed; details: for abundance of GLUT4 in plasma membranes, agent alone: benzylamine or orthovanadate alone; for amount of GLUT4 protein in the plasma membrane (PM): n=3, orthovanadate 0.1 mM
Description: To verify whether the stimulation of glucose transport in rat adipocytes may be explained by a translocation of the insulin-sensitive glucose transporters from an internal site to the plasma membrane, as it is known for insulin, the amount of GLUT4 protein was determined in plasma membrane (PM) and low density microsome (LDM) fractions.

[4] = 1 mM H2O2, preincubation 45 min, n=23
[5] = vanadate i.p. 25 μmol/kg first week and 50 μmol/kg second week, benzylamine 84 μmol/kg, FIG. 6, FIG. 7

## OO [H2O2, hydrogen peroxide]
[1]; [4]
  effect relative to the maximal insulin effect: 46%
  factor multiplying basal hexose transport: 5.0±0.8 fold
[1]; 5-min 2-DG uptake, FIG. 1
  glucose transport (2-DG uptake): dose-dependently stimulated

## NCc1ccccc1 [benzylamine]
[1]; FIG. 3
  stimulation of 2-deoxyglucose uptake, agent alone: no stimulatory effect
[2]
  food and water consumption: not detected
  weight of epididymal adipose tissue (adiposity): not detected
[2]; [5]
  glycemia: remained hyperglycemic
[3]; 45 minutes incubation
  abundance of GLUT4 in plasma membranes, agent alone: did not alter

## CNC[C@H](O)c1cccc(O)c1 [phenylephrine]
[1]; 5-min 2-DG uptake, FIG. 1
  glucose transport (2-DG uptake): not activated

## NNC(N)=O [semicarbazide]
[1]
  effect on glucose transport stimulated by 1 mM hydrogen peroxide plus 0.1 mM orthovanadate: unaffected
[1]; Rattus norvegicus, Adipocyte, read-out: inhibition of the glucose transport promoted by 1 mM tyramine plus orthovanadate
  inhibition at 100 µM: 59 ± 7%
[1]; semicarbazide (1 mM), FIG. 3
  effect on stimulation of 2-deoxyglucose uptake by benzylamine and orthovanadate: abolished

## NCCc1c[nH]c2ccc(O)cc12 [serotonin]
[1]; 5-min 2-DG uptake, FIG. 1
  glucose transport (2-DG uptake): not activated

## NCCc1ccc(O)cc1 [tyramine]
[1]; 5-min 2-DG uptake, FIG. 1
  glucose transport (2-DG uptake): not activated
[1]; not shown
  synergism on glucose transport with low, ineffective doses of insulin (10 pM) or hydrogen peroxide (0.01 mM): no synergism

## insulin: hormone used as positive control for glucose transport and GLUT4 translocation
[1]; insulin, 45 min preincubation, 5-min 2-DG uptake, FIG. 1
  increase of basal 2-DG uptake: twelve-fold
[3]
  GLUT4 abundance in light microsomes: reduction
[3]; 45 minutes incubation
  increase in the abundance of GLUT4 in plasma membrane preparations: 3.3 fold
[3]; Example 2, plasma membrane fraction
  content of β1-integrin, a constitutive PM protein: without any significant change
[3]; Example 4, 45 minutes incubation
  plasma membrane marker β1-integrin: remained unaltered
[3]; Western blot, low density microsomes
  decrease of basal GLUT4 content of LDM: 29%
[3]; Western blot
  amount of GLUT4 protein in the plasma membrane (PM): 252±43%

## sodium orthovanadate
[1]; 1 mM tyramine, 0.1 mM orthovanadate, 100 nM insulin, n=40
  stimulation of glucose transport as % of that of 100 nM insulin: 5±1%
[1]; FIG. 3
  stimulation of 2-deoxyglucose uptake, agent alone: did not stimulate
[1]; orthovanadate alone 0.1 mM, FIG. 2
  effect on basal or insulin-stimulated glucose transport: did not affect
[2]
  food and water consumption: not detected
  weight of epididymal adipose tissue (adiposity): not detected
[2]; vanadate 50 μmol/kg daily i.p. for two weeks, benzylamine 84 μmol/kg/day by osmotic minipumps, FIG. 5
  glycemia: moderate reduction
[2]; [5]
  glycemia: remained hyperglycemic
[3]; 45 minutes incubation
  abundance of GLUT4 in plasma membranes, agent alone: did not alter
[3]; Western blot
  amount of GLUT4 protein in the plasma membrane (PM): 103±8%
